Test results published in patent publication US12077503B2, “Substituted cyclic amides and their use as herbicides” (FMC CORPORATION, priority 2015, dated 2024).
Where two headings read alike, the source gives them in different places.

Key:
Format in all cases: in vivo
[1] = test system: ragweed (common ragweed, Ambrosia elatior); assay: Test A postemergence; settings: Ambrosia artemisiifolia, post-emergence, 240 h; for pest or weed control at 125 g/ha: 125 g ai/ha; for pest or weed control at 500 g/ha: 500 g ai/ha
Procedure, shortened: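 Preemergence directed soil spray on seeded pots, or postemergence application to plants 2–10 cm, one- to two-leaf. Solvent mixture non-phytotoxic, with surfactant. Scored ~10 d later, visually, 0–100 vs untreated.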

[2] = test system: barnyardgrass (Echinochloa crus-galli); assay: Test B flooded paddy test; settings: Echinochloa crus-galli, Flood, 250 g ai/ha, read-out: Barnyardgrass plant response rating
Procedure, shortened: (§1)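 Flooding to 3 cm over soil accompanied treatment, which consisted of adding compound to the standing water around 2-leaf plants; depth was then maintained. Visual assessment versus controls followed at 13 to 15 d (scale 0–100, 0 meaning no effect).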

[3] = test system: ducksalad (Heteranthera limosa); assay: Test B flooded paddy test; settings: Heteranthera limosa, Flood, 250 g ai/ha, read-out: Ducksalad plant response rating
Procedure, shortened: as §1

[4] = test system: rice (Oryra sativa); assay: Test B flooded paddy test; settings: Oryza sativa, Flood, 250 g ai/ha, read-out: Rice plant response rating
Procedure, shortened: as §1

[5] = test system: sedge, umbrella (small-flower umbrella sedge, Cyperus difformis); assay: Test B flooded paddy test; settings: Cyperus difformis, Flood, 250 g ai/ha, read-out: Sedge, Umbrella plant response rating
Procedure, shortened: as §1

[6] = postemergence, visual injury rating after approximately 10 d, read-out: Ragweed plant response rating (0 to 100 scale, 0 no effect, 100 complete control)
[7] = scale of 0 to 100 where 0 is no effect and 100 is complete control
[8] = Postemergence, visual injury after approximately 10 d, 0 to 100 scale where 0 is no effect and 100 is complete control, read-out: Plant response rating, Ragweed
[9] = postemergence, visual injury, 0 to 100 scale (0 no effect, 100 complete control), approx. 10 d, read-out: Plant response rating, Ragweed
[10] = 0 to 100 scale where 0 is no effect and 100 is complete control
[11] = postemergence, visual injury on 0 to 100 scale (0 no effect, 100 complete control), approx. 10 d, read-out: Ragweed plant response rating
[12] = postemergence, 0 to 100 scale, 0 is no effect, 100 is complete control, read-out: Ragweed plant response rating

| Compound | pest or weed control at 125 g/ha [1, 6] [%] | pest or weed control at 250 g/ha [2, 7] [%] | pest or weed control at 250 g/ha [3, 7] [%] | pest or weed control at 250 g/ha [4, 7] [%] | pest or weed control at 250 g/ha [5, 7] [%] | pest or weed control at 125 g/ha [1, 8] [%] | pest or weed control at 500 g/ha [1, 9] [%] | pest or weed control at 250 g/ha [2, 10] [%] | pest or weed control at 250 g/ha [3, 10] [%] | pest or weed control at 250 g/ha [4, 10] [%] | pest or weed control at 250 g/ha [5, 10] [%] | pest or weed control at 125 g/ha [1, 11] [%] | pest or weed control at 500 g/ha [1, 12] [%] |
| --- | --- | --- | --- | --- | --- | --- | --- | --- | --- | --- | --- | --- | --- |
| CCOc1ccc([C@H]2CN(C)C(=O)[C@@H]2C(=O)Nc2ccc(F)cc2F)cc1 [Compound 905] | 0 | 0 | 0 | 0 | 0 |  |  |  |  |  |  |  |  |
| CCOc1ccc([C@H]2CNC(=O)[C@@H]2C(=O)Nc2ccc(F)cc2F)cc1 [Compound 908] | 0 | 0 | 0 | 0 | 0 |  |  |  |  |  |  |  |  |
| CON1CC[C@H](c2ccc(F)cc2)[C@@H](C(=O)Nc2cccc(F)c2F)C1=O [Compound 918] |  | 0 | 30 | 15 | 0 | 0 |  |  |  |  |  |  |  |
| CN1CC[C@H](c2cccc(C(F)(F)F)c2)[C@@H](C(=O)Nc2ccccc2S(C)(=O)=O)C1=O [Compound 920] |  | 0 | 0 | 0 | 0 | 0 |  |  |  |  |  |  |  |
| CN1CC[C@H](c2cccc(Cl)c2)[C@@H](C(=O)Nc2cccc(F)c2F)C1=O [Compound 921] |  | 85 | 90 | 20 | 0 | 0 |  |  |  |  |  |  |  |
| Cc1cc([C@H]2CN(C)C(=O)[C@@H]2C(=O)Nc2ccccc2F)ccc1Cl [Compound 928] |  | 55 | 80 | 0 | 0 | 0 |  |  |  |  |  |  |  |
| Cc1cc([C@H]2CN(C)C(=O)[C@@H]2C(=O)Nc2ccc(F)cc2F)ccc1Cl [Compound 930] |  | 50 | 80 | 0 | 0 | 0 |  |  |  |  |  |  |  |
| Cc1ccc([C@H]2CN(C)C(=O)[C@@H]2C(=O)Nc2cccc(F)c2C)cc1Cl [Compound 1014] |  |  |  |  |  | 0 | 30 | 100 | 85 | 70 | 0 |  |  |
| CC(=O)Oc1ccc(F)c(NC(=O)[C@H]2C(=O)N(C)C[C@@H]2c2cc(F)cc(F)c2)c1 [Compound 1019] |  |  |  |  |  | 0 | 0 | 0 | 0 | 0 | 0 |  |  |
| O=C1NC[C@H](c2ccc3c(c2)OCO3)[C@H]1C(=O)Nc1ccc(F)cc1F [Compound 1026] |  |  |  |  |  | 0 | 0 | 0 | 100 | 20 | 0 |  |  |
| CC(C)COc1cccc([C@H]2CN(C)C(=O)[C@@H]2C(=O)Nc2ccc(F)cc2F)c1 [Compound 1030] |  |  |  |  |  |  | 0 | 30 | 70 | 0 | 0 | 0 |  |
| O=C(Nc1ccccc1F)[C@H]1C(=O)N(C2CC2)CC[C@@H]1c1ccccc1 [Compound 1031] |  |  |  |  |  |  | 0 | 0 | 0 | 0 | 0 | 0 |  |
| Cc1ccc([C@H]2CNC(=O)[C@@H]2C(=O)Nc2ccccc2F)cc1C [Compound 1033] |  |  |  |  |  |  | 30 | 50 | 100 | 0 | 0 | 0 |  |
| Cc1ccc([C@H]2CNC(=O)[C@@H]2C(=O)Nc2cccc(F)c2C)cc1C [Compound 1035] |  |  |  |  |  |  | 0 | 50 | 100 | 0 | 0 | 0 |  |
| Cc1cc([C@H]2CNC(=O)[C@@H]2C(=O)Nc2cccc(F)c2F)ccc1C(F)(F)F [Compound 1040] |  |  |  |  |  |  |  | 60 | 75 | 0 | 0 | 0 |  |
| Cc1cc([C@H]2CNC(=O)[C@@H]2C(=O)Nc2ccccc2S(C)(=O)=O)ccc1C(F)(F)F [Compound 1041] |  |  |  |  |  |  |  | 0 | 100 | 0 | 0 | 0 |  |
| CN1C[C@H](c2cc(F)cc(F)c2)[C@@H](C(=O)Nc2ncccc2Cl)C1=O [Compound 1097] |  |  |  |  |  |  |  | 0 | 0 | 0 | 0 | 0 | 0 |
| Cc1cc([C@H]2CN(C)C(=O)[C@@H]2C(=O)Nc2ccccc2F)ccc1Br [Compound 1098] |  |  |  |  |  |  |  | 0 | 90 | 0 | 0 | 0 | 0 |
| Cc1cc([C@H]2CN(C)C(=O)[C@@H]2C(=O)Nc2cccc(F)c2F)ccc1Br [Compound 1099] |  |  |  |  |  |  |  | 0 | 100 | 0 | 0 | 0 | 40 |
| O=C1NC[C@H](c2cscn2)[C@H]1C(=O)Nc1cccc(F)c1F [Compound 1111] |  |  |  |  |  |  |  | 20 | 70 | 0 | 0 | 0 | 0 |
| O=C1NC[C@H](c2cc(C(F)F)cs2)[C@H]1C(=O)Nc1ccccc1F [Compound 1116] |  |  |  |  |  |  |  | 50 | 100 | 20 | 75 | 0 | 0 |
| O=C1NC[C@H](c2cc(C(F)F)cs2)[C@H]1C(=O)Nc1cccc(F)c1F [Compound 1117] |  |  |  |  |  |  |  | 60 | 100 | 20 | 0 | 0 | 30 |
| CN1C[C@H](c2csc(C(F)F)c2)[C@@H](C(=O)Nc2cccc(F)c2F)C1=O [Compound 1122] |  |  |  |  |  |  |  | 70 | 100 | 25 | 30 | 50 | 50 |
| CN1C[C@H](c2csc(C(F)F)c2)[C@@H](C(=O)Nc2ccccc2F)C1=O [Compound 1123] |  |  |  |  |  |  |  | 70 | 100 | 25 | 0 | 30 | 50 |
| CC(C)Oc1ccc([C@H]2CNC(=O)[C@@H]2C(=O)Nc2ccccc2F)cc1 [Compound 1135] |  |  |  |  |  |  |  | 0 | 40 | 0 | 0 | 0 | 0 |
